Measured values as given in US4363805A, “Aminodesoxy-1.4;3.6-dianhydrohexitol nitrates and pharmaceutical composition” (Firma Willmar Schwabe, priority 1980, dated 1982).

How the values were obtained:
[1] = Acute toxicity, intravenous, mice; assay type: in vivo; settings: mouse, in vivo; intravenous, within 24 hours; read-out: Evaluated LD50-range
female NMRI-albino mice = experiment: Acute toxicity, intravenous, mice; assay type: in vivo; settings: within 24 hours
mongrel cats = experiment: Inotropic and heart-circulatory effectiveness on narcotised cats, intravenous; assay type: in vivo, cat; settings: 6 animals
[2] = 0.25 mg/kg i.v., before administration

N[C@H]1CO[C@H]2[C@@H]1OC[C@@H]2O[N+](=O)[O-] [1 c]
LD50 at 24 h [1]: > 200 mg/kg | Frequency of death (female NMRI-albino mice; 200 mg/kg i.v.): 0/3

CN(CCCCc1ccccc1)[C@H]1CO[C@H]2[C@@H]1OC[C@@H]2O[N+](=O)[O-] [Example 22, 5-[N-(4-Phenylbutyl)-N-methylamino]-5-desoxy-1.4;3.6-dianhydro-L-iditol 2-nitrate]
LD50 at 24 h [1]: ≥ 50 mg/kg | Frequency of death (female NMRI-albino mice; 50 mg/kg i.v.): 1/3 | Frequency of death (female NMRI-albino mice; 100 mg/kg i.v.): 3/3 | Frequency of death (female NMRI-albino mice; 200 mg/kg i.v.): 6/6

O=[N+]([O-])O[C@H]1CO[C@H]2[C@@H]1OC[C@@H]2NCCCCCc1ccccc1 [Example 30, 5-(5-Phenylpentylamino)-5-desoxy-1.4;3.6-dianhydro-L-iditol 2-nitrate]
blood pressure before (mongrel cats; [2]): 105.7 mm.Hg | dp/dt (inotropism) before (mongrel cats; [2]): 9600 mm.Hg/sec | heart frequency before (mongrel cats; [2]): 199.7 min⁻¹ | blood pressure WD (mongrel cats; 0.25 mg/kg i.v.): 9.2 min | blood pressure after (mongrel cats; 0.25 mg/kg i.v.): 88.2 mm.Hg | blood pressure Δ (mongrel cats; 0.25 mg/kg i.v.): -17.5 mm.Hg | dp/dt (inotropism) after (mongrel cats; 0.25 mg/kg i.v.): 8340 mm.Hg/sec | dp/dt (inotropism) Δ (mongrel cats; 0.25 mg/kg i.v.): -1260 mm.Hg/sec | dp/dt WD (mongrel cats; 0.25 mg/kg i.v.): 10.2 min | heart frequency after (mongrel cats; 0.25 mg/kg i.v.): 198.0 min⁻¹ | heart frequency Δ (mongrel cats; 0.25 mg/kg i.v.): -1.7 min⁻¹ | blood pressure WD (mongrel cats; 0.50 mg/kg i.v.): 11.2 min | blood pressure after (mongrel cats; 0.50 mg/kg i.v.): 81.8 mm.Hg | blood pressure Δ (mongrel cats; 0.50 mg/kg i.v.): -25.0 mm.Hg | dp/dt (inotropism) after (mongrel cats; 0.50 mg/kg i.v.): 7540 mm.Hg/sec | dp/dt (inotropism) Δ (mongrel cats; 0.50 mg/kg i.v.): -1820 mm.Hg/sec | dp/dt WD (mongrel cats; 0.50 mg/kg i.v.): 13.7 min | heart frequency after (mongrel cats; 0.50 mg/kg i.v.): 200.3 min⁻¹ | heart frequency Δ (mongrel cats; 0.50 mg/kg i.v.): -0.7 min⁻¹ | blood pressure WD (mongrel cats; 1.00 mg/kg i.v.): 22.2 min | blood pressure after (mongrel cats; 1.00 mg/kg i.v.): 73.3 mm.Hg | blood pressure Δ (mongrel cats; 1.00 mg/kg i.v.): -33.0 mm.Hg | dp/dt (inotropism) after (mongrel cats; 1.00 mg/kg i.v.): 6160 mm.Hg/sec | dp/dt (inotropism) Δ (mongrel cats; 1.00 mg/kg i.v.): -2180 mm.Hg/sec | dp/dt WD (mongrel cats; 1.00 mg/kg i.v.): 23.6 min | heart frequency after (mongrel cats; 1.00 mg/kg i.v.): 196.0 min⁻¹ | heart frequency Δ (mongrel cats; 1.00 mg/kg i.v.): -2.3 min⁻¹ | blood pressure WD (mongrel cats; 2.50 mg/kg i.v.): > 10 min | blood pressure after (mongrel cats; 2.50 mg/kg i.v.): 60.3 mm.Hg | blood pressure Δ (mongrel cats; 2.50 mg/kg i.v.): -45.8 mm.Hg | dp/dt (inotropism) after (mongrel cats; 2.50 mg/kg i.v.): 5840 mm.Hg/sec | dp/dt (inotropism) Δ (mongrel cats; 2.50 mg/kg i.v.): -2060 mm.Hg/sec | dp/dt WD (mongrel cats; 2.50 mg/kg i.v.): > 10 min | heart frequency after (mongrel cats; 2.50 mg/kg i.v.): 188.3 min⁻¹ | heart frequency Δ (mongrel cats; 2.50 mg/kg i.v.): -2.0 min⁻¹

COc1ccc(CCCCN[C@H]2CO[C@H]3[C@@H]2OC[C@@H]3O[N+](=O)[O-])cc1 [Example 32, 5-[4-(4-Methoxyphenyl)-butylamino]-5-desoxy-1.4;3.6-dianhydro-L-iditol 2-nitrate]
LD50 at 24 h [1]: 50 to 100 mg/kg | Frequency of death (female NMRI-albino mice; 50 mg/kg i.v.): 1/10 | Frequency of death (female NMRI-albino mice; 100 mg/kg i.v.): 10/10

O=[N+]([O-])O[C@H]1CO[C@H]2[C@@H]1OC[C@@H]2NCCCCOc1ccccc1 [Example 37, 5-(4-Phenoxybutylamino)-5-desoxy-1.4;3.6-dianhydro-L-iditol 2-nitrate]
LD50 at 24 h [1]: ≥ 50 mg/kg | Frequency of death (female NMRI-albino mice; 50 mg/kg i.v.): 3/10 | Frequency of death (female NMRI-albino mice; 100 mg/kg i.v.): 10/10 | Frequency of death (female NMRI-albino mice; 200 mg/kg i.v.): 3/3

O=[N+]([O-])O[C@@H]1CO[C@H]2[C@@H]1OC[C@@H]2NCCCOc1ccccc1 [Example 42, 2-(3-Phenoxypropylamino)-2-desoxy-1.4;3.6-dianhydro-D-glucitol 5-nitrate]
LD50 at 24 h [1]: 50 to 100 mg/kg | Frequency of death (female NMRI-albino mice; 50 mg/kg i.v.): 0/3 | Frequency of death (female NMRI-albino mice; 100 mg/kg i.v.): 2/3 | Frequency of death (female NMRI-albino mice; 200 mg/kg i.v.): 6/6

O=[N+]([O-])O[C@@H]1CO[C@H]2[C@@H]1OC[C@@H]2NCCCCc1ccccc1 [Example 43, 2-(4-phenylbutylamino)-2-desoxy-1.4;3.6-dianhydro-D-glucitol 5-nitrate]
LD50 at 24 h [1]: ≥ 50 mg/kg | Frequency of death (female NMRI-albino mice; 50 mg/kg i.v.): 1/3 | Frequency of death (female NMRI-albino mice; 100 mg/kg i.v.): 3/3 | Frequency of death (female NMRI-albino mice; 200 mg/kg i.v.): 6/6

COc1ccc(OCC(O)CN[C@H]2CO[C@H]3[C@@H]2OC[C@@H]3O[N+](=O)[O-])cc1 (stereo partly drawn) [Example 44, 5-[2-Hydroxy-3-(4-methoxyphenoxy)-propylamino]-5-desoxy-1.4;3.6-dianhydro-L-iditol 2-nitrate]
LD50 at 24 h [1]: 100 to 200 mg/kg | Frequency of death (female NMRI-albino mice; 100 mg/kg i.v.): 0/3 | Frequency of death (female NMRI-albino mice; 200 mg/kg i.v.): 2/3

COc1ccccc1OCC(O)CN[C@H]1CO[C@H]2[C@@H]1OC[C@@H]2O[N+](=O)[O-] (stereo partly drawn) [Example 46, 5-[2-Hydroxy-3-(2-methoxyphenoxy)-propylamino]-5-desoxy-1.4;3.6-dianhydro-L-iditol 2-nitrate]
LD50 at 24 h [1]: 100 to 200 mg/kg | Frequency of death (female NMRI-albino mice; 100 mg/kg i.v.): 0/3 | Frequency of death (female NMRI-albino mice; 200 mg/kg i.v.): 2/3
